Read-outs that look alike come from different tables or passages of the source.
Target: T1, BRM (Homo sapiens, UniProt P51531)
T1 construct: In-Cell Western Screen of BRM Degradation in SW1573 Cells; endogenous in cells; host or cells: SW1573
Experiment: In-cell Western screen of BRM degradation in SW1573 cells (Dmax and DC50)
Assay type: cell-based
Procedure, shortened: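 SW1573 cells were treated with compound overnight (18-20 h; final DMSO 0.1%), then fixed in 4% PFA, permeabilized with Triton X-100 and blocked. BRM was detected by in-cell Western using 800 nm anti-rabbit and 680 nm anti-mouse secondaries, and Dmax and DC50 were derived from the LI-COR Odyssey signal.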

[1] = BRM degradation, SW1573 cells, read-out: DC50
[2] = BRM degradation, SW1573 cells, when tested at the top concentration of between 0.3 and 10 μM, read-out: Dmax (%) (% degraded)
[3] = BRM degradation, SW1573 cells, Table 2D, read-out: **Dmax (%) (% degraded)
[4] = BRM degradation, SW1573 cells, Table 2D, read-out: *DC50

T1 sequence (P51531 whole entry): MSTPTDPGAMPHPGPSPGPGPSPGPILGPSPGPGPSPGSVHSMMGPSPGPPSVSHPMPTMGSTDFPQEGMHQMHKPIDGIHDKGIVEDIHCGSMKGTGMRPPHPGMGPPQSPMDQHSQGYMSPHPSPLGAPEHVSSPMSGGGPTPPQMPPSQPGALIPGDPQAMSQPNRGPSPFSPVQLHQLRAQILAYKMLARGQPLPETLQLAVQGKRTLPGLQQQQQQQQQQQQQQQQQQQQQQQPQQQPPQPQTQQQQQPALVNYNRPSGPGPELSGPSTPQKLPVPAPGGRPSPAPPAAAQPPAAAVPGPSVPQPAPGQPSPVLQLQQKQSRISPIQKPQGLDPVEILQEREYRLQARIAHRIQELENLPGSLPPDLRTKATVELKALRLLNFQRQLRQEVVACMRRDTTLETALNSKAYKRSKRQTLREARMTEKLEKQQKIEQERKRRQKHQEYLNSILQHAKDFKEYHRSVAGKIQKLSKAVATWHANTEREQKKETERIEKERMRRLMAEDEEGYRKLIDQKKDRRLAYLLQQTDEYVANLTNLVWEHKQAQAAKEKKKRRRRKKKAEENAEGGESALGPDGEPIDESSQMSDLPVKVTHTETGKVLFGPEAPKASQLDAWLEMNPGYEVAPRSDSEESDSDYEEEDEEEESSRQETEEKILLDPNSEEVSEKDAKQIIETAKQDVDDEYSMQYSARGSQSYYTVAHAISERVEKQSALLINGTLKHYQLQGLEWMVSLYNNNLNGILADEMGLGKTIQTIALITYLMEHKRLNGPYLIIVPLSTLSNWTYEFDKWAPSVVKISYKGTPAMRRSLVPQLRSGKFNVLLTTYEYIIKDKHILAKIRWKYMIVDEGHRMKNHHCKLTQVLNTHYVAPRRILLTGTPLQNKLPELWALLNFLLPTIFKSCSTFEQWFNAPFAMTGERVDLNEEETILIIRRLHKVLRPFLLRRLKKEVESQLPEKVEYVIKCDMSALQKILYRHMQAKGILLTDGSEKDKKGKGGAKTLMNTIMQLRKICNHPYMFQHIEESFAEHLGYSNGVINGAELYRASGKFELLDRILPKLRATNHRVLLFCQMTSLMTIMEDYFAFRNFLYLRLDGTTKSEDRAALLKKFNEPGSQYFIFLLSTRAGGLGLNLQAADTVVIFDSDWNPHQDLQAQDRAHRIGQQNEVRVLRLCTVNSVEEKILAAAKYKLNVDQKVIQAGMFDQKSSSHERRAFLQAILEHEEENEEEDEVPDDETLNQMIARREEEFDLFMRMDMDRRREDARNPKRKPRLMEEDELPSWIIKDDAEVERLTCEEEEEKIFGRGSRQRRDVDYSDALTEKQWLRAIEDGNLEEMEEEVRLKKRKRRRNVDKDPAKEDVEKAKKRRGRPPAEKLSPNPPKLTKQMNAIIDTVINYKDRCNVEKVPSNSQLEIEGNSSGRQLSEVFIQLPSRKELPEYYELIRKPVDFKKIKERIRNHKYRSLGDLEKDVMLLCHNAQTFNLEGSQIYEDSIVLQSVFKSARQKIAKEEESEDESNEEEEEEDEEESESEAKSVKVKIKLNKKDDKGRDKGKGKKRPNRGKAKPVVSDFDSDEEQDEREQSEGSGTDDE

Compound | DC50 [1] [nM] | Dmax [3] [%] | DC50 [4] [nM] | other results
Cc1ncsc1-c1ccc([C@H](CCC#N)NC(=O)[C@@H]2C[C@@H](O)CN2C(=O)[C@@H](c2cc(OCCN3CCC(O[C@H]4C[C@H](Oc5cc(N6C7CCC6CN(c6cc(-c8ccccc8O)nnc6N)C7)ccn5)C4)CC3)no2)C(C)C)cc1 [compound 533, (2S,4R)-1-((2R)-2-(3-(2-(4-((1r,3R)-3-((4-(3-(3-amino-6-(2-hydroxyphenyl)pyridazin-4-yl)-3,8-diazabicyclo[3.2.1]octan-8-yl)pyridin-2-yl)oxy)cyclobutoxy)piperidin-1-yl)ethoxy)isoxazol-5-yl)-3-methylbutanoyl)-N-((S)-3-cyano-1-(4-(4-methylthiazol-5-yl)phenyl)propyl)-4-hydroxypyrrolidine-2-carboxamide] | – | – | – | DC50 (BRM degradation, read-out: BRM DC50): < 2.5 nM; Dmax (SW1573, % degraded, when tested at the top concentration of between 0.3 and 10 μM, read-out: BRM Dmax (%)): > 75%
Cc1ncsc1-c1ccc([C@H](C)NC(=O)[C@@H]2C[C@@H](O)CN2C(=O)[C@@H](c2cc(OCCN3CCN(CC#CCn4cc(-c5cc(-c6ccccc6O)nnc5N)cn4)CC3)no2)C(C)C)cc1 [compound 113, (2S,4R)-1-((R)-2-(3-(2-(4-(4-(4-(3-amino-6-(2-hydroxyphenyl)pyridazin-4-yl)-1H-pyrazol-1-yl)but-2-yn-1-yl)piperazin-1-yl)ethoxy)isoxazol-5-yl)-3-methylbutanoyl)-4-hydroxy-N-((S)-1-(4-(4-methylthiazol-5-yl)phenyl)ethyl)pyrrolidine-2-carboxamide] | < 2.5 | – | – | Dmax [2]: > 75%
CCOC[C@H](NC(=O)[C@@H]1C[C@@H](O)CN1C(=O)[C@H](c1cc(OCCN2CCN(CCOc3cc(N4C5CCC4CN(c4cc(-c6ccccc6O)nnc4N)C5)ccn3)CC2)no1)C(C)C)c1ccc(-c2scnc2C)cc1 [compound 257, (2S,4R)-1-((2S)-2-(3-(2-(4-(2-((4-(3-(3-amino-6-(2-hydroxyphenyl)pyridazin-4-yl)-3,8-diazabicyclo[3.2.1]octan-8-yl)pyridin-2-yl)oxy)ethyl)piperazin-1-yl)ethoxy)isoxazol-5-yl)-3-methylbutanoyl)-N-((R)-2-ethoxy-1-(4-(4-methylthiazol-5-yl)phenyl)ethyl)-4-hydroxypyrrolidine-2-carboxamide] | 2.5 to 10 | – | – | Dmax (BRM degradation, SW1573 cells, tested at the top concentration of between 0.3 and 10 μM, read-out: Dmax (%) (% degraded)): > 75%
Cc1nccn1-c1ccc([C@H](C)NC(=O)[C@@H]2C[C@@H](O)CN2C(=O)[C@@H](c2cc(OCCN3CCN(CCOc4cc(N5C6CCC5CN(c5cc(-c7ccccc7O)nnc5N)C6)ccn4)C[C@@H]3C)no2)C(C)C)cc1 [compound 553, (2S,4R)-1-((2R)-2-(3-(2-((2S)-4-(2-((4-(3-(3-amino-6-(2-hydroxyphenyl)pyridazin-4-yl)-3,8-diazabicyclo[3.2.1]octan-8-yl)pyridin-2-yl)oxy)ethyl)-2-methylpiperazin-1-yl)ethoxy)isoxazol-5-yl)-3-methylbutanoyl)-4-hydroxy-N-((S)-1-(4-(2-methyl-1H-imidazol-1-yl)phenyl)ethyl) pyrrolidine-2-carboxamide] | – | > 75 | < 2.5 | –
Cc1ncsc1-c1ccc([C@H](C)NC(=O)[C@@H]2C[C@@H](O)CN2C(=O)[C@H](c2cc(N3CCC(OC4CCN(CC5CC(CN6CCC([C@H](C)n7cc(-c8cc(-c9ccccc9O)nnc8N)cn7)CC6)C5)CC4)CC3)no2)C(C)C)cc1 (single isomer, unassigned) [compound 593] | – | > 75 | < 2.5 | –
Cc1ncsc1-c1ccc([C@H](C)NC(=O)[C@@H]2C[C@@H](O)CN2C(=O)[C@H](c2cc(OCCC3CCN(C[C@H]4C[C@H](Oc5cc(N6C7CCC6CN(c6cc(-c8ccccc8O)nnc6N)C7)ccn5)C4)CC3)no2)C(C)C)cn1 [compound 287, (2S,4R)-1-((2S)-2-(3-(2-(1-(((1r,3S)-3-((4-(3-(3-amino-6-(2-hydroxyphenyl)pyridazin-4-yl)-3,8-diazabicyclo[3.2.1]octan-8-yl)pyridin-2-yl)oxy)cyclobutyl)methyl)piperidin-4-yl)ethoxy)isoxazol-5-yl)-3-methylbutanoyl)-4-hydroxy-N-((S)-1-(6-(4-methylthiazol-5-yl)pyridin-3-yl)ethyl)pyrrolidine-2-carboxamide] | > 30 | – | – | –
Cc1ncsc1-c1ccc([C@H](C)NC(=O)[C@@H]2C[C@@H](O)CN2C(=O)[C@H](c2cc(OCC[C@@H]3CCN(C[C@H]4C[C@H](Oc5cc(N6C7CCC6CN(c6cc(-c8ccccc8O)nnc6N)C7)ccn5)C4)C[C@H]3C)no2)C(C)C)cc1 (racemic) [compound 545, (2S,4R)-1-((2S)-2-(3-(2-((3S,4S)-1-(((1r,3S)-3-((4-(3-(3-amino-6-(2-hydroxyphenyl)pyridazin-4-yl)-3,8-diazabicyclo[3.2.1]octan-8-yl)pyridin-2-yl)oxy)cyclobutyl)methyl)-3-methylpiperidin-4-yl)ethoxy)isoxazol-5-yl)-3-methylbutanoyl)-4-hydroxy-N-((S)-1-(4-(4-methylthiazol-5-yl)phenyl)ethyl)pyrrolidine-2-carboxamide] | – | > 75 | 2.5 to 10 | –
Cc1ncsc1-c1ccc([C@H](C)NC(=O)[C@@H]2C[C@@H](O)CN2C(=O)[C@@H](c2cc(N3CCN(CCN4CCC(C(C)n5cc(-c6cc(-c7ccccc7O)nnc6N)cn5)CC4)CC3)no2)C(C)C)cc1 (stereo partly drawn) [compound 591, (2S,4R)-1-((2R)-2-(3-(4-(2-(4-(1-(4-(3-amino-6-(2-hydroxyphenyl)pyridazin-4-yl)-1H-pyrazol-1-yl)ethyl)piperidin-1-yl)ethyl)piperazin-1-yl)isoxazol-5-yl)-3-methylbutanoyl)-4-hydroxy-N-((S)-1-(4-(4-methylthiazol-5-yl)phenyl)ethyl)pyrrolidine-2-carboxamide] | – | > 75 | < 2.5 | –
Cc1ncsc1-c1ccc([C@H](C)NC(=O)[C@@H]2C[C@@H](O)CN2C(=O)[C@@H](c2cc(OCCN3CC[C@H](OCCc4cc(N5C6CCC5CN(c5cc(-c7ccccc7O)nnc5N)C6)ccn4)C[C@@H]3C)no2)C(C)C)cc1 (racemic) [compound 568, (2S,4R)-1-((2R)-2-(3-(2-((2S,4S)-4-(2-(4-(3-(3-amino-6-(2-hydroxyphenyl)pyridazin-4-yl)-3,8-diazabicyclo[3.2.1]octan-8-yl)pyridin-2-yl)ethoxy)-2-methylpiperidin-1-yl)ethoxy)isoxazol-5-yl)-3-methylbutanoyl)-4-hydroxy-N-((S)-1-(4-(4-methylthiazol-5-yl)phenyl)ethyl)pyrrolidine-2-carboxamide] | – | > 75 | < 2.5 | –
Cc1ncsc1-c1ccc([C@H](C)NC(=O)[C@@H]2C[C@@H](O)CN2C(=O)[C@@H](c2cc(OCCN3CCN(CCOc4cc(N5C6CCC5CN(c5cc(-c7ccccc7O)nnc5N)C6)ccn4)CC3)no2)C(C)C)cn1 [compound 116, (2S,4R)-1-((2R)-2-(3-(2-(4-(2-((4-(3-(3-amino-6-(2-hydroxyphenyl)pyridazin-4-yl)-3,8-diazabicyclo[3.2.1]octan-8-yl)pyridin-2-yl)oxy)ethyl)piperazin-1-yl)ethoxy)isoxazol-5-yl)-3-methylbutanoyl)-4-hydroxy-N-((S)-1-(6-(4-methylthiazol-5-yl)pyridin-3-yl)ethyl)pyrrolidine-2-carboxamide] | < 2.5 | – | – | Dmax [2]: > 75%

— US12539292B2, “BRM targeting compounds and associated methods of use” (Arvinas Operations, Inc., priority 2018, dated 2026)
